According to patent US10426755B2, “Methods for inhibiting cancer cells” (Chang Gung Memorial Hospital, Chiayi, priority 2015, dated 2019):
“Also recorded” adds a separate entry of the source.

Key:
Type in all cases: cell-based
[1] = tested on: macrophages with prostate cancer cells (DU145 or PC3); assay: Macrophage migration in invasive assay with DT-treated prostate cancer cells; settings: DT-treated vs untreated DU145 and PC3 cells; images not shown
Protocol: (§1) An in vitro study to evaluate the effect of DT on macrophage and cancer cell migration was performed.
(§2) Macrophages were treated with a vehicle (DMSO), 5 or 10 μM DT. The mobility of the macrophages was not affected by DT. The macrophages were placed in an invasive assay, prepared accordingly to the steps in Example 10 using DT-treated prostate cancer cells (DU145 or PC3) incubated in 10% CD-FBS RPMI medium.

[2] = tested on: prostate cancer cells (metastatic DU145, PC3, 22RV1); assay: Cell invasion assay (transwell, Matrigel), prostate cancer cells; settings: 5 or 10 μM DT, 3 days, vs control vehicle; FIG. 12 (a), (c), (e)
Protocol: (§3) An in vitro evaluation of the effect of DT on lung cancer cells (A549 and chemotherapy resistant/metastatic H460), prostate cancer cells (metastatic DU145) and colorectal cancer cells (chemotherapy resistant HCT116) invasion and migration was performed, using cell invasion assay and cell migration assay.
Cell Invasion Assay: cells of interest were treated with a control vehicle, 5 or 10 μM of DT and incubated for 3 days. 1×10^5 cells were placed into the upper chamber of transwell plates (8 μm) with membranes pre-coated with 20% Matrigel and the bottom chamber contained 600 μL media supplemented with 10% fetal bovine serum (FBS). The cells migrated to the bottom of the chamber were fixed, stained and counted.

[3] = tested on: skp2 and downstream genes in MCF7-tamoxifen resistant breast cancer cells; assay: skp2 and downstream gene mRNA expression, tamoxifen resistant breast cancer cells; settings: various concentrations of DT vs DMSO, FIG. 10 (h), (j)
Protocol: (§4) It has been reported that skp2 plays an important role in the metastasis of cancer cells. An in vitro evaluation of the effect of DT on prostate cancer cell metastasis was performed, by measuring the mRNA expression of skp2 in the following prostate cancer cell lines: meatstatic DU145 cells (Panels i-j of FIG. 9), hormone therapy resistant and metastatic PC3 cells (Panel h of FIG. 9), and 22RV1 cells (Panels k-l of FIG. 9), A549 lung cancer cells (Panels (c)-(e) of FIG. 10), chemotherapy-resistant/metastatic H460 lung cancer cells (Panels (d) and (f) of FIG. 10), HCT116 colon cancer cells (Panels (g) and (i) of FIG. 10) and MCF7-tamoxifen resistant breast cancer cells (Panels (h) and (j) of FIG. 10) […].
(§5) The cancer cells were treated with DMSO and various concentrations of DT.

[4] = tested on: CCL2 in THP1 cells/22RV1 co-culture; assay: CCL2 ELISA, THP1/22RV1 co-culture; settings: DT-treated monocyte/22RV1 co-culture medium; 5 or 10 μM DT, 24 hours; FIG. 15 (b)
Protocol: As illustrated in Example 10, the production of CCL2 was inhibited by DT in both prostate cancer cells and macrophage, the effect of DT on monocyte/cancer cell co-culture and macrophage/cancer cell co-culture was examined using the invasion assay described in Example 9. • (a) THP1 monocytes, Raw264.7 macrophage, monocyte/prostate cancer co-culture and macrophage/prostate cancer co-culture were treated with a vehicle (DMSO), 5 or 10 μM DT for 24 hours, the cultured medium was collected and placed into the lower chamber of a transwell plate. • (b) Prostate cancer cells (PC3, DU145 and 22RV1) were placed in the cell invasion assay). The level of CCL2 in the invasion assay was measured by ELIZA method.

[5] = tested on: macrophages; assay: Macrophage mobility after DT treatment; settings: macrophages treated with 5 or 10 μM DT vs DMSO
Protocol: as §1, §2

[6] = tested on: skp2 and downstream genes in HCT116 colon cancer cells; assay: skp2 and downstream gene mRNA expression, colon cancer cells; settings: various concentrations of DT vs DMSO, FIG. 10 (g), (i)
Protocol: as §4, §5

[7] = tested on: γ-H2AX and phosphorylated-ATM in A549 and chemotherapy-resistant/metastatic H460 lung cancer cells; assay: Western blot of DNA damage response proteins, lung cancer cells; settings: various concentrations of DT, vs control vehicle; dose dependent; FIG. 10 (a)-(b)
Protocol: An in vitro evaluation on the damage effect of DT on cancer cells was performed, using prostate cancer cells (metastatic LNCaP and metastatic DU145, hormone therapy resistant and metastatic PC3 and 22RV1) and lung cancer cells (A549 and chemotherapy-resistant/metastatic H460).
Cancer cells were treated with a control vehicle, dihydrotestosterone (DHT), and various concentrations of DT between 6 to 24 hours. Cellular extracts of treated cancer cells were analyzed using Western Blot.

[8] = tested on: ARK1 endometrial cancer cells; assay: XTT proliferation assay, ARK1; settings: 5, 10 and 20 μM DT, 1-2 days, FIG. 4
Protocol: The prostate cancer cells were plated at a density of 10^3 or 3×10^3 per well, in a 96-well plate, in a medium containing 10% Fetal bovine serum (FBS) (Gibco®, commercially available from Life Technologies, USA). Once the prostate cancer cells were attached to the culture dish, the 10% FBS medium was replaced with a second 10% FBS medium and each of the prostate cancer cell line was treated with 1, 5, and 10 μM of DT respectively for 1-2 days. The absorbance was measured using XTT assay kit (commercially available from Roche, Switzerland) at 492 nm using an ELISA reader (Bio-Rad Laboratories, USA).
An in vitro evaluation of the effect of DT on endometrial cancer cells was performed. The endometrial cancer cell lines, ARK1 and ARK2, were provided by Dr. T H Wang at Chang Gung Meorial Hospital, Linkou, Taiwan)
The endometrial cancer cells were cultured and plated according to the steps in Example 1 and each of the endometrial cancer cell line was treated with 0 (control), 5, 10 and 20 μM of DT, respectively for 1-2 days. The absorbance was measured using XTT assay kit at 492 nm using an ELISA reader.

[9] = tested on: prostate cancer cells (metastatic DU145, PC3, 22RV1); assay: Cell migration (wound-healing) assay, prostate cancer cells; settings: DT vs control vehicle, 24 h, dose dependent; FIG. 12 (b), (d), (f)
Protocol: as §3
Cell Migration Assay: In vitro wound-healing assay was used to assess cell motility in two dimensions. Cancer cells were plated overnight to achieve a subconfluent cell layer in 24-well plates. A scratch was made on the cell layer with a micropipette tip, and cultures were washed twice with serum-free medium to remove floating cells. Cancer cells were incubated in a culture medium containing DT or the control vehicle. Wound healing was visualized by comparing photographs taken at the time of adding the DT/control vehicle and 24 h later. Three experiments were done in quadruplicates.

Cc1cccc2c3c(ccc12)C(=O)C1=C(OCC1C)C3=O (stereo not drawn) [DT, dihydroisotanshinone I]
macrophage migration induced by prostate cancer cells [1]: inhibit macrophage migration | prostate cancer cell motility (invasion assay) [2]: reduced the motility and migration of prostate cancer cells | mRNA expression of skp2 and its downstream genes, target therapy resistant breast cancer [3]: effectively inhibit mRNA expression of skp2 and its downstream genes; also recorded: reduces skps and its downstream genes, MMP2, MMP9 and E-cadherin | concentration of CCL2 [4]: significantly reduced | mobility of the macrophages [5]: not affected | mRNA expression of skp2 and its downstream genes, colorectal cancer [6]: effectively inhibit mRNA expression of skp2 and its downstream genes; also recorded: reduces skps and its downstream genes, MMP2, MMP9 and E-cadherin | DNA damage response proteins (γ-H2AX and phosphorylated-ATM), lung cancer cells [7]: increase in DNA damage response proteins (γ-H2AX and phosphorylated-ATM); also recorded: increased the DNA damage response proteins (γ-H2AX, phosphorylated-ATM) | inhibition of ARK1 endometrial cancer cells [8]: effective in inhibiting ARK1 and ARK2 endometrial cancer cells | prostate cancer cell migration into the wounded area [9]: reduced the motility and migration of prostate cancer cells; also recorded: reduced prostate cancer cell migration into the wounded area
